# Publication PMC9452769 (Molecular Plant Pathology, 2022)
# Biological target: T1, OxyR (OxyR-His) (Xanthomonas campestris, UniProt Q8PCA2)
# T1 sequence (Q8PCA2 1-313): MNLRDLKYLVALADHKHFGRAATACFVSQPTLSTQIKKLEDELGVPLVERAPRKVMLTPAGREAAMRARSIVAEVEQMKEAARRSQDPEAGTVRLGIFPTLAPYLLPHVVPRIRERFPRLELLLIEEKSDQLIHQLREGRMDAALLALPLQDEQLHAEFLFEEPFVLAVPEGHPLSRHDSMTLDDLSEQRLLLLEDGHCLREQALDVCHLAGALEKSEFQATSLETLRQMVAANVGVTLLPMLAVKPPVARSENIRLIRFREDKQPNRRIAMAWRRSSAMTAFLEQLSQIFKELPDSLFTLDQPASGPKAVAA
# Assay: microscale thermophoresis
# Type: binding
structure (smiles),measurement,value
C[S@@+]([O-])CCCCN=C=S [sulforaphane],Kd,325 ± 105 nM
